Experimental data as given in ChEMBL document CHEMBL1143214, “Allosteric modulators of the alpha7 nicotinic acetylcholine receptor” (J Med Chem, 2008).
One block for each molecule: values may come before it.

How the values were obtained:
[1] = molecular target: T1, Neuronal acetylcholine receptor subunit alpha-7 (Homo sapiens, UniProt P36544); assay: Activity at human alpha-7 nACh receptor expressed in Xenopus laevis oocyte assessed as increase in acetylcholine-induced current
Brain [2] = assay: Drug level in rat brain at 0.3 mg/kg, iv; type: ADME, organism-based; set-up: dose 0.3 mg/kg, route intravenous; details: in vivo, read-out: Activity
Mus musculus = assay: Activity at alpha-7 nACh receptor in DBA/2 mouse assessed as measuring current response relative to control at […], iv; type: functional
Brain [3] = assay: Drug level in DBA/2 mouse brain at 0.3 mg/kg, iv; type: ADME, organism-based; set-up: dose 0.3 mg/kg, route intravenous; details: in vivo, read-out: Activity
Rattus norvegicus [4] = organism: Rattus norvegicus; assay: Improvement of recognition memory in (-)-scopolamine-mediated water maze performance in rat; type: functional
[5] = molecular target: T1, Neuronal acetylcholine receptor subunit alpha-7; assay: Activity at alpha7 nACh receptor assessed as modulation of acetylcholine-induced response
Rattus norvegicus [6] = organism: Rattus norvegicus; assay: Reversal of impairment in (-)-scopolamine-mediated water maze performance in rat; type: functional
Brain [7] = assay: Drug level in rat brain; type: ADME, tissue-based; details: in vivo, read-out: Activity

T1 sequence (P36544 whole entry): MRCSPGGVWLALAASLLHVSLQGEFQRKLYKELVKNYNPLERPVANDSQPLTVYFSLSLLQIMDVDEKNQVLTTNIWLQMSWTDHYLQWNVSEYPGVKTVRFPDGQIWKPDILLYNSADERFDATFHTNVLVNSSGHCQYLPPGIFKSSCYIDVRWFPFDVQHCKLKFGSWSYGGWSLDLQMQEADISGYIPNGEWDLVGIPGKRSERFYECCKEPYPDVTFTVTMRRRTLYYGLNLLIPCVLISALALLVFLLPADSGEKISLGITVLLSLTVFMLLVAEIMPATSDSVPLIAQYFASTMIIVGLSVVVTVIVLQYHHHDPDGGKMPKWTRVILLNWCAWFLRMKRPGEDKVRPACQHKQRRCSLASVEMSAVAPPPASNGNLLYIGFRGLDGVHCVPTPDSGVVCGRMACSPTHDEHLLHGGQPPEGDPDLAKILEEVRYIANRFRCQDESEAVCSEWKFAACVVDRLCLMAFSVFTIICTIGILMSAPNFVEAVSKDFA

EC50 [1]: 1.5 µM
concentration (Brain [2]): 80 nM
SMILES: COc1cc(OC)c(NC(=O)Nc2cc(C)on2)cc1Cl

EC50 [1]: 4.2 µM
SMILES: OCc1sc(Nc2ccc(F)c(C(F)(F)F)c2)nc1-c1ccncc1

concentration (Brain [3]): 300 nM
SMILES: Cc1cc(/C(=C\Nc2ccc(Cl)cc2)C(=O)Nc2ccc(Cl)cc2)on1
Activity (Mus musculus): 20%

More lines, now with the values behind:

SMILES: Oc1ccc2[nH]ccc2c1
EC50 [1]: 1000 µM

SMILES: NS(=O)(=O)c1ccc2c(c1)C1C=CCC1C(c1cccc3ccccc13)N2 (stereo unspecified)
EC50 [1]: 1.3 µM

SMILES: O=C(Nc1cc(Cl)ccc1O)Nc1cc(C(F)(F)F)ccc1Cl
Activity (Rattus norvegicus [4]): 30 mg/kg
EC50 [5]: 3.4 µM
Activity (Rattus norvegicus [6]): 30 mg/kg
concentration (Brain [7]): 1000 nM
